Patent US6162803A, “Indol-3-yl-cyclohexyl amine derivatives for the treatment of depression” (American Home Products Corp., priority 1999, dated 2000)

How the values were obtained:
serotonin transporter = molecular target: T1, serotonin transporter (Rattus norvegicus, UniProt P31652); test: [3H]-paroxetine binding, affinity for the serotonin transporter (rat frontal cortical membranes); set-up: species or system male Sprague-Dawley rats; details: 3H-paroxetine (0.1 nM); for Ki: 60 min at 25° C., read-out: Ki (nM) ST [^3 H]paroxetine
T1 construct: frontal cortical membranes prepared from male Sprague-Dawley rats; from tissue; host or cells: frontal cortical membranes of male Sprague-Dawley rats
Protocol: A protocol similar to that used by Cheetham et al., Neuropharmacol., 32:737 (1993) was used to determine the affinity of compounds for the serotonin transporter. Briefly, frontal cortical membranes prepared from male Sprague-Dawley rats were incubated with ^3 H-paroxetine (0.1 nM) for 60 min at 25° C. All tubes also contained either vehicle, test compound (one to eight concentrations), or a saturating concentration of fluoxetine (10 μM) to define […]. All reactions are terminated by the addition of ice cold Tris buffer followed by rapid filtration using a Tom Tech filtration device to separate bound from free ^3 H-paroxetine. Bound radioactivity was quantitated using a Wallac 1205 Beta Plate® counter. Nonlinear regression analysis was used to determine IC50 values which were converted to Ki values using the method of Cheng and Prusoff, Biochem. Pharmacol., 22:3099 (1973); Ki=IC50/((Radioligand conc.)/(1+KD)).

human 5-HT1A receptor = molecular target: T2, human 5-HT1A receptor (Homo sapiens, UniProt P08908); test: [3H]8-OH-DPAT competition binding at human 5-HT1A receptor (5-HT1A.CHO cell membranes); details: [3H]8-OH-DPAT 1.5 nM; for inhibition at 1 µM: 0.5 h
T2 construct: expressed in transfected cells; host or cells: Chinese hamster ovary cells (5-HT1A.CHO), membranes
T2 sequence (P08908 1-422): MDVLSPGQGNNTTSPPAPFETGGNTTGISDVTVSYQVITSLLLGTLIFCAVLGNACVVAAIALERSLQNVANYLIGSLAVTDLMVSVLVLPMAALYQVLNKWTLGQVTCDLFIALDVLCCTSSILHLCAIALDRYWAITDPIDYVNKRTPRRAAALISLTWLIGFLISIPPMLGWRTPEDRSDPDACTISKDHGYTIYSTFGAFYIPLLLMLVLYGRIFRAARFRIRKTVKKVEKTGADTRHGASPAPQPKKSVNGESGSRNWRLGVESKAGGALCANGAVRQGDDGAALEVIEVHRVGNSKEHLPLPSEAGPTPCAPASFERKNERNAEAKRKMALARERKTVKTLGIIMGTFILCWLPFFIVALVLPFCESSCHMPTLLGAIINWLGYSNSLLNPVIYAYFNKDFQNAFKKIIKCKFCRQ
Protocol: The PCR cloning of the human 5-HT1A receptor subtype from a human genomic library has been described previously Chanda et al., Mol. Pharmacol., 43:516 (1993). A stable Chinese hamster ovary cell line expressing the human 5-HT1A receptor subtype (5-HT1A.CHO cells) was employed throughout this study. Cells were maintained in DMEM supplemented with 10% foetal calf serum, non-essential amino acids and penicillin/streptomycin.
Cells were grown to 95-100% confluency as a monolayer before membranes were harvested for binding studies. Cells were gently scraped from the culture plates, transferred to centrifuge tubes, and washed twice by centrifugation (2000 rpm for 10 min., 4° C.) in buffer (50 mM Tris; pH 7.5). The resulting pellets were aliquoted and placed at -80° C. On the day of assay, the cells were thawed on ice, and resuspended in buffer. Studies were conducted using [^3 H]8-OH-DPAT as the radioligand. The binding assay was performed in 96 well microtiter plates in a final total volume of 250 μL of buffer. Competition experiments were performed by using 7 concentrations of unlabelled drug and a final ligand concentration of 1.5 nM. Non-specific binding was determined in the presence of 10 μM 5HT. Saturation analysis was conducted by using [^3 H]8-OH-DPAT at concentrations ranging from 0.3-30 nM. Following a 30 minute incubation at room temperature, the reaction was terminated by the addition of ice cold buffer and rapid filtration using a M-96 Brandel Cell Harvester (Gaithersburg, Md) through a GF/B filter presoaked for 30 minutes in 0.5% polyethyleneimine.

T1 sequence (P31652 whole entry): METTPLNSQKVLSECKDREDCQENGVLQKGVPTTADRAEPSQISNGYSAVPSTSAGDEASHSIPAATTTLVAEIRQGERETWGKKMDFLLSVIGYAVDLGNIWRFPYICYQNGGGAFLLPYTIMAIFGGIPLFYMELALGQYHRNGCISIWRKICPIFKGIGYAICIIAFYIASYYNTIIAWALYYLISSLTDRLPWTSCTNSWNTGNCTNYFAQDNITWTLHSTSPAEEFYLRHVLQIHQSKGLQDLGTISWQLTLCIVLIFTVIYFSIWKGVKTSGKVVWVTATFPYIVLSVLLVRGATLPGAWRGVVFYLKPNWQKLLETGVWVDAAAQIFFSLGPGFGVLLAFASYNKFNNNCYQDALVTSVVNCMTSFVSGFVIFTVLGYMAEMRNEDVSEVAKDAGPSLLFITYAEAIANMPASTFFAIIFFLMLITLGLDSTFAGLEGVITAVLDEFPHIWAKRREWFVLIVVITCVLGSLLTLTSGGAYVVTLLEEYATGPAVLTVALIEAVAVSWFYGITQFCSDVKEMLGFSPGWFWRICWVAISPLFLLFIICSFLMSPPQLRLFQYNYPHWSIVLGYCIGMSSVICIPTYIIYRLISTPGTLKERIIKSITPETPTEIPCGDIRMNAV

SMILES	Ki (serotonin transporter) [nM]	inhibition at 1 µM (human 5-HT1A receptor) [%]	inhibition at 1 µM (serotonin transporter; 1 h, @ 1 μM, read-out: ST [^3 H]paroxetine, % @ 1 μM) [%]	Ki (human 5-HT1A receptor; 30 minute incubation at room temperature) [nM]
Fc1ccc2[nH]cc([C@H]3CC[C@H](NCC4CNc5ccccc5O4)CC3)c2c1 (relative stereo) [1 (trans), (3,4-Dihydro-benzo[1,4]oxazine-2-ylmethyl)-[trans-4-(5-fluoro-1H-indol-3-yl)-cyclohexyl]-amine]	24	44	–	–
Fc1ccc2[nH]cc([C@H]3CC[C@@H](NCC4COc5ccccc5N4)CC3)c2c1 (relative stereo) [2 (cis), (3,4-Dihydro-benzo[1,4]oxazine-3-ylmethyl)-[cis-4-(5-fluoro-1H-indol-3-yl)-cyclohexyl]-amine]	–	9	34	–
Fc1ccc2[nH]cc([C@H]3CC[C@H](NCC4COc5ccccc5N4)CC3)c2c1 (relative stereo) [2 (trans), (3,4-Dihydro-benzo[1,4]oxazine-3-ylmethyl)-[trans-4-(5-fluoro-1H-indol-3-yl)-cyclohexyl]-amine]	10	20	–	–
Fc1ccc2[nH]cc([C@H]3CC[C@@H](NCC4CNc5ccccc5O4)CC3)c2c1 (stereo partly drawn) [1 (cis), (3,4-Dihydro-benzo[1,4]oxazine-2-ylmethyl)-[cis-4-(5-floro-1H-indol-3-yl)-cyclohexyl]-amine]	44	–	–	2430
